Kd data for 2 molecules are collected here from PMC10147607, “MSI2 promotes translation of multiple IRES-containing oncogenes and virus to induce self-renewal of tumor initiating stem-like cells” (Cell Death Discovery, 2023).

The target in assay [1] is T1, MSI2 (full-length, wild type; recombinant MSI2) (Homo sapiens, UniProt Q96DH6).
T1 construct: full-length recombinant MSI2, purified; His6-tagged in EMSA (MSI2-His6)
Briefly: microscale thermophoresis (MST). The assay is classed as binding.

In assay [2] the target is T1, MSI2 (full-length, wild type; recombinant MSI2). Description: ligand binding curve, probably MST (method for gossypol not stated explicitly).

T1 sequence (Q96DH6 whole entry): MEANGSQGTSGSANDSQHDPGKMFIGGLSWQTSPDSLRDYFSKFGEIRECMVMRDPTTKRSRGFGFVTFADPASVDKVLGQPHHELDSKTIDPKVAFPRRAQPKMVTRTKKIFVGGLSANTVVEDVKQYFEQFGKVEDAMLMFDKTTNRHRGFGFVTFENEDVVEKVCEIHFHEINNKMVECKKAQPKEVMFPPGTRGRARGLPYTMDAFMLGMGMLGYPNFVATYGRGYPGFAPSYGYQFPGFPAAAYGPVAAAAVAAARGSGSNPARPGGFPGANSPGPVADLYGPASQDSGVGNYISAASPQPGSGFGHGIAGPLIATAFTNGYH

As to `CC(C)(Sc1ccc(CCN(CCCCC2CCCCC2)C(=O)NC2CCCCC2)cc1)C(=O)O` [GW7647], the equilibrium dissociation constant (Kd) in assay [1] came out at 1.2 µM.

In the case of `Cc1cc2c(C(C)C)c(O)c(O)c(C=O)c2c(O)c1-c1c(C)cc2c(C(C)C)c(O)c(O)c(C=O)c2c1O` [Gossypol], in assay [2], the Kd was found to be 35 µM.
